In ChEMBL document CHEMBL4266031, “Total Synthesis of Violaceoid A and (-)- and (+)-Violaceoid B” (2018) one finds GI50 and Activity data, which are given here for three compounds.

In one assay the test system is Hs-578T. Briefly: Antiproliferative activity against human Hs 578T cells after 48 hrs by WST8 assay. In kind it is functional. For orientation: Formazan colour is commonly taken as a measure of viable cells.
In the next assay the test system is MCF7. The experiment in a line: Antiproliferative activity against human MCF7 cells after 48 hrs by WST8 assay. Type of assay: functional. The conditions noted are these: for GI50: MCF7, 48 h.

The term GI50 denotes the concentration giving 50% growth inhibition. High values mean less potent growth inhibition, low ones more potent growth inhibition.

Take `CCCCCC[C@@H](O)c1c(O)ccc(O)c1CO`: the GI50 in the assay on Hs-578T and in the assay on MCF7 was above 100 µM throughout.
Turning to `CCCCC/C=C/c1c(O)ccc(O)c1CO`, in the assay with Hs-578T, the Activity entry was “Dose-dependent effect” and the concentration for 50% growth inhibition (GI50) is 59.7 µM. Also, in the assay on MCF7, the Activity entry is “Dose-dependent effect” and the 50% growth inhibitory concentration (GI50) is 61.5 µM.
For `CCCCCC[C@H](O)c1c(O)ccc(O)c1CO`, the GI50 in the assay on Hs-578T and with MCF7 was above 100 µM throughout.
